Experimental data as given in patent US20070004767A1, “Methods for treating neurofibromatosis 1” (priority 2005, published 2007).

How the values were obtained:
astrocytes = settings: mouse, 1 μM
Protocol: (§3) To determine whether the growth advantage of Nf1-deficient astrocytes reflected increased mTOR signaling, Nf1−/− astrocyte proliferation after rapamycin treatment was measured.

[1] = biological target: FKBP-rapamycin binding domain (FRB) of mammalian target of rapamycin (mTOR) (Homo sapiens, UniProt P42345+P62942); settings: cited from earlier work
wild-type astrocytes = assay: Astrocyte proliferation by 3[H]-thymidine incorporation, wild-type astrocytes
Protocol: (§4) Murine neocortical astroglial cultures, containing >95% GFAP positive cells (astrocytes), were generated from postnatal day 2 Nf1^flox/flox and (LSL)-K-RAS^G12D; GFAPCre transgenic pups as previously described. […] Astrocyte proliferation assays were performed by ^3[H]-thymidine incorporation.
as §3

[2] = system: ribosomal S6 protein phosphorylation in Nf1−/− astrocytes; assay: S6 phosphorylation (phospho-S6 Ser240/244 Western blot) in Nf1−/− astrocytes; assay type: cell-based, mouse
Protocol: (§1) Western blot analysis was performed as described previously in, for example, Dasgupta B et al., The Neurofibromatosis 1 Gene Product Neurofibromin Regulates Pituitary Adenylate Cyclase-Activating Polypeptide-Mediated Signaling in Astrocytes, J. NEUROSCI. 23:8949-8954 (2003). The following antibodies were used: anti-NF1GRP, nucleolin, and cyclin D1 (Santa Cruz Biotechnology, Santa Cruz, Calif.), phospho-S6 (Serine-240/244; Cell Signaling Technology, Beverley, Mass.), α-tubulin and fibrillarin (Sigma, St. Louis, Mo.), anti-T7 (Novagen, Madison, Wis.), anti-KT3 (Babco, Richmond, Calif.), NPM (Zymed, San Francisco, Calif.), and L7 (Novus Biologicals, Littleton, Colo.).
(§2) One of the downstream targets of activated RAS is P13-Kinase. See Rodriguez-Viciana P, et al., Phosphatidylinositol-3-OH Kinase as a Direct Target of Ras, NATURE 370:527-532 (1994). In this regard, loss of neurofibromin expression is associated with activation of the PI3K-AKT signaling pathway in human NF1-associated pilocytic astrocytoma and in Nf1−/− mouse myeloid cells. See Lau N, et al., Loss of Neurofibromin is Associated with Activation of Ras/MAPK and PI3K/AKT Signalling in a Neurofibromatosis 1 Astrocytoma, J NEUROPATHOL. EXP. NEUROL. 59:759-767 (2000); and Donovan S, et al., Hyperactivation of Protein Kinase B and Erk Have Discrete Effects on Survival, Proliferation, and Cytokine Expression in Nf1-Deficient Myeloid Cells, CANCER CELL 2:507-514 (2002). Several studies have shown that activation of the PI3K-AKT leads to activation of the mammalian target of rapamycin (mTOR), which leads to phosphorylation of S6 kinase and activation of ribosomal S6. See Chung J, et al., PDGF- and Insulin-Dependent pp70S6k Activation Mediated by Phosphatidylinositol-3-OH Kinase, NATURE 370:71-75 (1994); and Gingras A C, et al., Regulation of Translation Initiation by FRAP/mTOR, GENES DEV. […] To determine whether S6 hyperactivation in Nf1−/− astrocytes is downstream of PI3K and mTOR, S6 phosphorylation in both Nf1+/+ and Nf1−/− astrocytes in presence of a PI3K inhibitor (LY294002) and an mTOR inhibitor (rapamycin) was measured. […]

Nf1−/− astrocytes = assay: Astrocyte proliferation by 3[H]-thymidine incorporation, Nf1−/− astrocytes
Protocol: as §4, §3

[3] = system: ribosomal S6 protein phosphorylation in wild-type (Nf1+/+) astrocytes; assay: S6 phosphorylation (phospho-S6 Ser240/244 Western blot) in wild-type astrocytes; assay type: cell-based, mouse; settings: for S6 phosphorylation: wild-type astrocytes
Protocol: as §1, §2

[4] = biological target: 12 kDa FK506 binding protein (FKBP12) (Homo sapiens, UniProt P62942); settings: cited from earlier work
[5] = control astrocytes, FIG. 6 legend

Chain of FKBP-rapamycin binding domain (FRB) of mammalian target of rapamycin (mTOR) (P42345 2015-2114, species assumed): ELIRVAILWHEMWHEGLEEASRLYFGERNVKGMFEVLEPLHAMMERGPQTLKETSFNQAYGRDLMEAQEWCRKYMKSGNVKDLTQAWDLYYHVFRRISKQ
Chain of FKBP-rapamycin binding domain (FRB) of mammalian target of rapamycin (mTOR) (P62942 2-108, species assumed): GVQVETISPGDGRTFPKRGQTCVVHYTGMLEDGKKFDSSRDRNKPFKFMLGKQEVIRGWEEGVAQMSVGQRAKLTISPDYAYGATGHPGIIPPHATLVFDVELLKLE
Chain of 12 kDa FK506 binding protein (FKBP12) (P62942 whole entry, species assumed): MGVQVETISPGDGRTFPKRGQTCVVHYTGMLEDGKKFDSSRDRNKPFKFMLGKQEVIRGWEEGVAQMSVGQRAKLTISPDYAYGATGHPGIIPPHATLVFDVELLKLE

In the case of CO[C@H]1C[C@@H]2CC[C@@H](C)[C@@](O)(O2)C(=O)C(=O)N2CCCC[C@H]2C(=O)O[C@H]([C@H](C)C[C@@H]2CC[C@@H](O)[C@H](OC)C2)CC(=O)[C@H](C)/C=C(\C)[C@@H](O)[C@@H](OC)C(=O)[C@H](C)C[C@H](C)/C=C/C=C/C=C/1C [rapamycin, Rapamycin], the “cell survival (Trypan blue exclusion)” value (astrocytes) is listed as “greater than 98%”, the “binding affinity to FRB domain (E2015 to Q2114) of mTOR” value [1] is listed as “high affinity” and the “effect on cell proliferation (growth) in control astrocytes” value (wild-type astrocytes; [5]) is listed as “little or no effect”. For the same compound, the “reduction of basal proliferation” value (wild-type astrocytes; wild-type astrocytes, 1 μM) was 16±4%, the S6 phosphorylation ([2]; 1 μM, FIG. 6 inset) was “significantly inhibited” and the S6 phosphorylation ([2]; 5 μM, FIG. 2C) was “completely inhibited”. For the same compound, the “inhibition of ribosomal S6 protein phosphorylation, dose dependence” value ([2]; FIG. 6 legend) was “dose-dependent inhibition”, the reduction of proliferation (Nf1−/− astrocytes; 1 μM) was 55±9.5% and the “inhibition of cell proliferation (growth), dose dependence” value (Nf1−/− astrocytes; FIG. 6 legend) was “dose-dependent inhibition”. The “effect on ribosomal S6 protein phosphorylation in control astrocytes” value [3, 5] was “little or no effect”, the S6 phosphorylation ([3]; 1 μM, FIG. 6 inset) was “no effect” and the S6 phosphorylation ([3]; 5 μM, FIG. 2C) was “completely inhibited”. For the same compound, the “binding affinity to FKBP12” value [4] was “high affinity”.
